In patent publication US12528792B2, “Sulfonamide compounds and the use thereof in the treatment of cancer” (TROBIO THERAPEUTICS PTY LTD, priority 2019, dated 2026):
pIC50: −log10 of the molar value. Like-named read-outs stand apart in the source and are kept apart here.

Tests used:
Assay type in all cases: cell-based
[1] = tested on: A2780 ovarian cancer cells; assay: In vitro growth inhibition assay, Alamar Blue, single agent IC50; conditions: Homo sapiens
Experimental: (§1) In vitro growth inhibition assays were performed as technical triplicate in two independent experiments and cell viability was assessed by Alamar Blue assay readout. Briefly, cells in logarithmic phase growth were seeded in 384-well plates in a 50 μL/well assay volume. Cells were seeded at 1,200 cells/well using a Multidrop 384 (Thermo Scientific) and allowed to adhere at 37° C. with 5% CO2, in a humidified atmosphere (LiCONIC incubator). After 24 hours incubation, test compounds, positive control (20 μM Thonzonium bromide, 100% kill) and vehicle only (0.4% DMSO) were added into wells of each assay plate using a Tecan HP D300 Digital Dispenser in technical triplicate under minimum light. Following 72 hours drug exposure, metabolic activity was detected by addition of 10% (v/v) Alamar Blue reagent to each assay well using a Multidrop Cambi (Thermo Scientific) and determined by measurement of fluorescence intensity (excitation 555 nm, emission 585 nm) using an EnSpire (Perkin Elmer) plate reader. Readings were performed at 0 hour (background) and after 6 hours alamar blue incubation at 37° C.
Each drug was tested as a 10-point concentration series with two-fold serial dilutions of each drug. The concentration series for compounds 6 and 8 was 100, 50, 25, 12.5, 6.25, 3.125, 1.563, 0.781, 0.391 and 0.195 μM and for compounds 24, 43 and 48 was 50, 25, 12.5, 6.25, 3.125, 1.563, 0.781, 0.391, 0.195 and 0.098 μM for the two independent experiments. The concentration series for vinorelbine and paclitaxel was 100, 50, 25, 12.5, 6.25, 3.125, 1.5625, 0.781, 0.391 and 0.195 nM. Thonzonium bromide (20 μM) and 0.4% DMSO were used as positive and vehicle controls, respectively. The IC50 value was calculated by derivation of the best-fit line using a sigmoidal dose response model (Activity Base Software Suite, IDES).
Activity Base software suite (IDES, version 8.3.0.175) was used for data analysis. Cell survival is expressed as a percentage of viable cells. IC50 concentrations were calculated by derivation of the best-fit line using a sigmoidal dose response model with technical triplicate data points.

[2] = tested on: SK-N-SH neuroblastoma cells; assay: Cytotoxicity assay, MTS viability; conditions: Homo sapiens, 72 hours
Experimental: The ability of compounds of the disclosure to inhibit the proliferation of SK—N—SH neuroblastoma cells was assessed. The SK—N—SH cell line was maintained as a monolayer in Dulbeccos Modified Eagles medium (DMEM) supplemented with 10% foetal bovine serum (FBS) and grown at 37° C. in a humidified atmosphere with 5% CO2. For the cytotoxicity assay, SK—N—SH cells were seeded at a density of 2×10^3 cells per well in 96-well plates. The cells were treated with serial dilutions of the test compounds (1:2 starting concentration 100 µM) and viability measured after 72 hours using a standard MTS assay. Cell viability was normalised to control (vehicle alone) and dose response curves and EC50 values (Table 3) were determined using Graph Pad Prism 6.

A2780 (ovarian) cells = assay: Anti-proliferative activity, Cell-Titre luminescent viability assay; conditions: Homo sapiens, 72 h exposure, Cell-Titre luminescent reagent
How it was run: (§2)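 Cells attached 24 h at 37° C., 5% CO2, then treated 72 h with compound at 0.3–100 μM or 0.1–30 μM. Viability read by Cell-Titre luminescence after 30 min reagent exposure, normalized to vehicle; EC50 from variable-slope sigmoidal nonlinear regression.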

A549 (NSCLC) cells = assay: as above; conditions: Homo sapiens, 72 h exposure, Cell-Titre luminescent reagent
How it was run: as §2

[3] = tested on: A2780 ovarian cancer cells; assay: Drug combination screen, 6x6 dose matrix, Bliss-independence synergy; parameters: key to Max. Synergy, Vinorelbine: Bliss synergy score; 0 = no synergy, negative = antagonism; highest in matrix; key to Total Synergy, Vinorelbine: sum of Bliss synergy scores across the dose matrix; conditions: 72 h (26*: 96-well plate format); for Max. Synergy, Paclitaxel / Total Synergy, Paclitaxel: combination with paclitaxel; for Max. Synergy, Paclitaxel / Max. Synergy, Vinorelbine: Bliss score; for Total Synergy, Paclitaxel / Total Synergy, Vinorelbine: sum of Bliss scores of the matrix; for Max. Synergy, Vinorelbine / Total Synergy, Vinorelbine: combination with vinorelbine
Experimental: as §1
The two drugs in each combination matrix were dispensed using a Tecan HP D300 Digital Dispenser. Assays were performed in triplicate for each drug combination (test compound/vinorelbine and test compound/paclitaxel combinations). Synergistic drug interactions were calculated from the averaged cell viability data using the methodology described below.
Synergistic drug interactions were determined for each pa1rw1se drug combination by applying the Bliss-independence model that assumes independence of drug mechanisms. Prior to the analysis, percent cell viability (CV) for combination data were converted to fractional cell growth inhibition (GI) by the formula: […]
The Bliss additivism model was used to calculate a predicted combined response C to two single agents with responses A and B (using GI values), as follows:
The final score for any combination was reported as the difference between the value predicted by the additive model and the experimentally observed value, normalised to 100. Using GI values the maximum possible synergy score is 100, with 0 indicating no synergy and negative indicating possible antagonism. Scores were also reported as a “Max synergy” score, which is the highest individual synergy score for each combination matrix, and a “Total synergy” score, which was obtained by summation of each individual synergy score for the matrix.
The single agent IC50 values for the test compounds and their synergy scores in combination with vinorelbine and paclitaxel are presented in Table 4. The data is listed as IC50 mean from technical triplicates for two independent experiments. The averaged IC50 concentrations for the single agents from both runs were then used to generate the 6×6 dose matrices in the synergy experiment. Synergy scores for each drug combination were calculated by the Bliss-independence model. The maximum synergy and total synergy scores for each combination in A2780 cells are listed.

[4] = 72 h drug exposure, Alamar Blue, 384-well (26*: 96-well plate format), read-out: Single-agent IC50
[5] = single agent, 96-well plate format, read-out: Dose matrix IC50 concentrations

| SMILES | pIC50 [1, 4] | pIC50 (A2780 (ovarian) cells) | pIC50 (A549 (NSCLC) cells) | pIC50 [1, 5] | pIC50 [2] | Max. Synergy, Paclitaxel [3] | Total Synergy, Paclitaxel [3] | Max. Synergy, Vinorelbine [3] | Total Synergy, Vinorelbine [3] |
| --- | --- | --- | --- | --- | --- | --- | --- | --- | --- |
| CCC(C)c1ccc(NC(=O)C2CCN(S(=O)(=O)c3ccc4[nH]ccc4c3)CC2)cc1 (centres unmarked) [Compound 6, 1-((1H-indol-5-yl)sulfonyl)-N-(4-(sec-butyl)phenyl)piperidine-4-carboxamide] | 4.92 | 4.82 | 4.60 | – | 5.25 | 6.78 | −46.04 | 42.36 | 250.66 |
| O=C(Nc1ccc(F)cc1)c1ccn(S(=O)(=O)c2ccc3[nH]ccc3c2)c1 [Compound 48, 1-((1H-indol-5-yl)sulfonyl)-N-(4-fluorophenyl)-1H-pyrrole-3-carboxamide] | 4.83 | 5.60 | 5.48 | – | 5.12 | 31.55 | 263.84 | 17.28 | 68.74 |
| CCC1=C[C@@H]2CN(C1)Cc1c([nH]c3ccccc13)[C@@](C(=O)OC)(c1cc3c(cc1OC)N(C)[C@H]1[C@@](O)(C(=O)OC)[C@H](OC(C)=O)[C@]4(CC)C=CCN5CC[C@]31[C@@H]54)C2 [vinorelbine, reference compound] | – | – | – | 8.40 | – | – | – | – | – |
| CC(C)(C)c1ccc(S(=O)(=O)n2ccc(C(=O)NCCc3ccc(F)cc3)c2)cc1 [Compound 89, 1-((4-(tert-butyl)phenyl)sulfonyl)-N-(4-fluorophenethyl)-1H-pyrrole-3-carboxamide] | – | 5.55 | 5.17 | – | 4.81 | – | – | – | – |
| Cn1cc(S(=O)(=O)N2CCC(C(=O)Nc3ccc(C(F)(F)F)cc3)CC2)cc1C(N)=O [Compound 2, 1-((5-carbamoyl-1-methyl-1H-pyrrol-3-yl)sulfonyl)-N-(4-(trifluoromethyl)phenyl)piperidine-4-carboxamide] | – | 4.86 | 4.47 | – | 4.58 | – | – | – | – |
| CCCc1ccc(NC(=O)c2ccn(S(=O)(=O)c3ccc4[nH]ccc4c3)n2)cc1 [Compound 109, 1-((1H-indol-5-yl)sulfonyl)-N-(4-propylphenyl)-1H-pyrazole-3-carboxamide] | – | 5.06 | 5.26 | – | 4.96 | – | – | – | – |
| CC(C)c1ccc(NC(=O)c2ccn(S(=O)(=O)c3ccc4[nH]ccc4c3)c2)cc1 [Compound 37, 1-((1H-indol-5-yl)sulfonyl)-N-(4-isopropylphenyl)-1H-pyrrole-3-carboxamide] | – | 5.37 | 5.24 | – | 4.96 | – | – | – | – |
| CCc1cccc(NC(=O)c2ccn(S(=O)(=O)c3ccc4[nH]ccc4c3)c2)c1 [Compound 41, 1-((1H-indol-5-yl)sulfonyl)-N-(3-ethylphenyl)-1H-pyrrole-3-carboxamide] | – | 5.96 | 4.89 | – | 4.79 | – | – | – | – |
| O=C(Nc1ccc(C(F)(F)F)cc1)N1CCN(S(=O)(=O)c2ccc3[nH]ccc3c2)CC1 [Compound 17, 4-((1H-indol-5-yl)sulfonyl)-N-(4-(trifluoromethyl)phenyl)piperazine-1-carboxamide] | – | 4.86 | 5.19 | – | 4.64 | – | – | – | – |
| CCC(C)c1ccc(NC(=O)C2CCN(S(=O)(=O)c3ccc4cc[nH]c4c3)CC2)cc1 (centres unmarked) [Compound 64, 1-((1H-indol-6-yl)sulfonyl)-N-(4-(sec-butyl)phenyl) piperidine-4-carboxamide] | – | 5.01 | 4.85 | – | 5.39 | – | – | – | – |
| O=C(Nc1cccc(C(F)(F)F)c1)c1ccn(S(=O)(=O)c2ccc3[nH]ccc3c2)c1 [Compound 46, 1-((1H-indol-5-yl)sulfonyl)-N-(3-(trifluoromethyl)phenyl)-1H-pyrrole-3-carboxamide] | – | 5.15 | 5.11 | – | 4.83 | – | – | – | – |

The next lines start with results.

| pIC50 [1, 4] | pIC50 (A2780 (ovarian) cells) | pIC50 (A549 (NSCLC) cells) | pIC50 [1, 5] | SMILES | pIC50 [2] | Max. Synergy, Paclitaxel [3] | Total Synergy, Paclitaxel [3] | Max. Synergy, Vinorelbine [3] | Total Synergy, Vinorelbine [3] |
| --- | --- | --- | --- | --- | --- | --- | --- | --- | --- |
| – | – | – | 8.40 | CC(=O)O[C@H]1C(=O)[C@@]2(C)[C@H]([C@H](OC(=O)c3ccccc3)[C@]3(O)C[C@H](OC(=O)[C@H](O)[C@@H](NC(=O)c4ccccc4)c4ccccc4)C(C)=C1C3(C)C)[C@]1(OC(C)=O)CO[C@@H]1C[C@@H]2O [paclitaxel, reference compound] | – | – | – | – | – |
| 4.84 | 4.93 | 4.92 | – | O=C(Nc1ccc(C(F)(F)F)cc1)C1CCN(S(=O)(=O)c2ccc3[nH]ccc3c2)CC1 [Compound 8, 1-((1H-indol-5-yl)sulfonyl)-N-(4-(trifluoromethyl)phenyl)piperidine-4-carboxamide] | 4.94 | 8.95 | −3.62 | 32.29 | 225.43 |
| – | 5.74 | 5.40 | – | O=C(Nc1ccccc1F)c1ccn(S(=O)(=O)c2ccc3[nH]ccc3c2)c1 [Compound 50, 1-((1H-indol-5-yl)sulfonyl)-N-(2-fluorophenyl)-1H-pyrrole-3-carboxamide] | 4.94 | – | – | – | – |
| – | 5.68 | 5.42 | – | CCC(C)c1ccc(NC(=O)c2ccn(S(=O)(=O)c3ccc4[nH]cc(C)c4c3)c2)cc1 (centres unmarked) [Compound 58, N-(4-(sec-butyl)phenyl)-1-((3-methyl-1H-indol-5-yl)sulfonyl)-1H-pyrrole-3-carboxamide] | 4.85 | – | – | – | – |
| – | 5.49 | 4.89 | – | CC(C)(C)c1ccc(S(=O)(=O)n2ccc(C(=O)Nc3ccc(C(F)(F)F)cc3)c2)cc1 [Compound 93, 1-((4-(tert-butyl)phenyl)sulfonyl)-N-(4-(trifluoromethyl)phenyl)-1H-pyrrole-3-carboxamide] | 4.74 | – | – | – | – |
| – | 5.42 | 5.41 | – | CCC(C)c1ccc(NC(=O)c2ccn(S(=O)(=O)c3cnc4[nH]ccc4c3)c2)cc1 (centres unmarked) [Compound 60, 1-((1H-pyrrolo[2,3-b]pyridin-5-yl)sulfonyl)-N-(4-(sec-butyl)phenyl)-1H-pyrrole-3-carboxamide] | 4.88 | – | – | – | – |
| – | < 4.00 | < 4.00 | – | CCC(C)c1ccc(NC(=O)C2CCN(S(C)(=O)=O)CC2)cc1 (centres unmarked) [Compound 29, N-(4-(sec-butyl)phenyl)-1-(methylsulfonyl) piperidine-4-carboxamide] | < 4.00 | – | – | – | – |
| – | 5.21 | 5.05 | – | CCC(C)c1ccccc1NC(=O)c1ccn(S(=O)(=O)c2ccc3[nH]ccc3c2)c1 (centres unmarked) [Compound 36, 1-((1H-indol-5-yl)sulfonyl)-N-(2-(sec-butyl)phenyl)-1H-pyrrole-3-carboxamide] | 4.65 | – | – | – | – |
